For this assay, the system named is α-synA53T–YFP (HEK293T cells). Kind of assay: Seeded intracellular aggregation in α-synA53T–YFP cells. Particulars: day 3; for aggregate-positive cells: transfected, then 30 nM small α-syn PFF seeds. In kind it is cell-based, human. An excerpt: Fig. 5 SVD-1a inhibits seeded α-syn aggregation in cells. To validate the inhibitory effect of SVD-1a in cells, we used the α-synA53T–YFP cell system, which stably expresses human α-syn with the familial A53T mutation fused to YFP in HEK293T cells and enables fluorescence-based detection of aggregates that show up as highly fluorescent spots within the cells, clearly above background, intracellularly after seeding with small α-syn PFF seeds. In order to avoid interference of the peptide with the uptake of small α-syn PFF seeds, we performed a two-step transfection starting with a first transfection of the peptide and a second transfection with PFFs. […] To quantify the number of cells with aggregates in our images and to avoid experimental bias, we used a fully automated algorithm for image analysis. […] One asterisk denotes p values < 0.05 and three asterisks a p value < 0.001. Error bars indicate standard deviation. […] Treatment with increasing concentrations of SVD-1a, here imaged at 25 µM, led to a concentration-dependent reduction in the number of cells with aggregates (H-J). Panels B, E, and H show nuclei stained with Hoechst 33342. Panels C, F, and I show αSynA53T–YFP fluorescence. Panels D, G, and J show merged images. The scale bar in J represents 100 µm and applies to all panels. The viability of the cells was not reduced by transfection with seeds or in SVD-1a, as shown in Supplementary Fig. 15. Confirmation that highly fluorescent aggregates contain α-syn is shown in Supplementary Fig. 14 by co-immunostaining with syn-211 antibody, anti-α-syn (phospho S129) antibody and 5G4 antibody.
A construct encoding full-length A53T-mutated human α-syn fused with YFP at the C-terminus was synthesized and introduced into the pMK–RQ expression vector (GeneArt; Thermo Fisher Scientific, USA). The α-synA53T–YFP construct was subcloned into the pIRESpuro3 vector (Clontech; Takara Bio, JPN) using NheI (5′) and NotI (3′) restriction sites. HEK293T cells (American Type Culture Collection) were cultured in high-glucose Dulbecco’s modified Eagle’s medium (DMEM; Sigma-Aldrich, USA) supplemented with 10% fetal calf serum (Sigma-Aldrich, USA), and 50 units/ml penicillin as well as 50 μg/ml streptomycin (Sigma-Aldrich, USA). Cells were cultured in a humidified atmosphere of 5% CO2 at 37 °C. Cells plated in DMEM were transfected using Lipofectamine 2000 (Invitrogen; Thermo Fisher Scientific, USA). Stable cells were selected in DMEM containing 1 μg/ml puromycin (EMD Millipore, USA). Monoclonal lines were generated by fluorescence-activated cell sorting of a polyclonal cell population in 96-well plates using a MoFlo XDP cell sorter (Beckman Coulter, USA). Finally, the clonal cell line B5 was selected from among 24 clonal cell lines and is referred to as αSynA53T–YFP cells. Peptides were incubated with 1.5% Lipofectamine 2000 in OptiMEM for 2 h at room temperature. […] On day 3 the cells were imaged with an IN Cell Analyzer 6500HS System (Cytiva, USA) using the blue and green fluorescence channel, and analyzed using IN Carta Image Analysis Software (Cytiva, USA) after an algorithm was established to identify intracellular aggregates in living cells. For each condition, we used four wells and took 16 images per well, which were analyzed by a fully automated algorithm to avoid bias. […]

The text below walks through data of article PMC12454639, “Direct disassembly of α-syn preformed fibrils into α-syn monomers by an all-D-peptide” (NPJ Parkinson's Disease, 2025).

Square brackets hold non-standard residues; d marks the D form. Peptide text beside a SMILES is read from it.

`CC[C@@H](C)[C@@H](NC(=O)[C@@H](Cc1c[nH]cn1)NC(=O)[C@@H](CCC(=O)O)NC(=O)[C@@H](CCC(N)=O)NC(=O)[C@@H](Cc1c[nH]c2ccccc12)NC(=O)[C@@H](Cc1ccc(O)cc1)NC(=O)[C@H](NC(=O)[C@@H](CCC(=O)O)NC(=O)[C@@H](Cc1c[nH]cn1)NC(=O)[C@H](NC(=O)[C@H]1CCCN1C(=O)[C@@H](CC(C)C)NC(=O)[C@H](N)CCCNC(=N)N)[C@H](C)O)[C@H](C)O)C(=O)N[C@H](Cc1c[nH]c2ccccc12)C(=O)N[C@H](Cc1c[nH]cn1)C(=O)N[C@H](C)C(=O)N[C@H](CCCNC(=N)N)C(=O)N[C@H](CCCNC(=N)N)C(=O)N[C@H](CCCNC(=N)N)C(=O)N[C@H](CCCNC(=N)N)C(=O)N[C@H](CCCNC(=N)N)C(N)=O` [SVD-1a] (H-[dR][dL][dP][dT][dH][dE][dT][dY][dW][dQ][dE][dH][dI][dW][dH][dA][dR][dR][dR][dR][dR]-NH2): the aggregate-positive cells (5 µM peptide) is reported as 64% and the aggregate-positive cells (25 µM peptide) was determined as 57%. Moreover, for the setting “peptide transfection, then 30 nM PFF seeds”, the “inhibition of intracellular seeded α-syn aggregation” value is listed as “inhibited α-syn aggregation in αSynA53T–YFP cells in a dose-dependent manner”.
